# Literature values as cited in patent US20070099940A1, “Pth agonists” (priority 2004, published 2007).
# System: fracture incidence
# Conditions: daily subcutaneous injection for up to 2 years, postmenopausal women
compound,measurement,value
CC[C@H](C)[C@H](NC(=O)[C@H](CCC(=O)O)NC(=O)[C@H](CO)NC(=O)[C@@H](NC(=O)[C@@H](N)CO)C(C)C)C(=O)N[C@@H](CCC(N)=O)C(=O)N[C@@H](CC(C)C)C(=O)N[C@@H](CCSC)C(=O)N[C@@H](Cc1cnc[nH]1)C(=O)N[C@@H](CC(N)=O)C(=O)N[C@@H](CC(C)C)C(=O)NCC(=O)N[C@@H](CCCCN)C(=O)N[C@@H](Cc1cnc[nH]1)C(=O)N[C@@H](CC(C)C)C(=O)N[C@@H](CC(N)=O)C(=O)N[C@@H](CO)C(=O)N[C@@H](CCSC)C(=O)N[C@@H](CCC(=O)O)C(=O)N[C@@H](CCCN=C(N)N)C(=O)N[C@H](C(=O)N[C@@H](CCC(=O)O)C(=O)N[C@@H](Cc1c[nH]c2ccccc12)C(=O)N[C@@H](CC(C)C)C(=O)N[C@@H](CCCN=C(N)N)C(=O)N[C@@H](CCCCN)C(=O)N[C@@H](CCCCN)C(=O)N[C@@H](CC(C)C)C(=O)N[C@@H](CCC(N)=O)C(=O)N[C@@H](CC(=O)O)C(=O)N[C@H](C(=O)N[C@@H](Cc1cnc[nH]1)C(=O)N[C@@H](CC(N)=O)C(=O)N[C@@H](Cc1ccccc1)C(=O)O)C(C)C)C(C)C [PTH(1-34)],reduction of fracture incidence at non-vertebral sites,40%
same,reduction of fracture incidence at the spine,65%
